System: cyclamen root tuber
Assay: Germination and rooting of cut-off root tubers in solid media
Assay type: in vivo
Set-up: Germination rate / Rooting rate: unit not given here
Conditions: NAA 0.05 mg/l
Description: The cyclamen root tuber obtained was cut off from the parent body and planted in an experimental plot prepared by adding 30 to 90 g/l of sucrose, NAA and BA to the ⅓ MS medium as shown in Table 4.6 g/l of agar was added to the medium which was then sterilized in an autoclave to prepare a solid medium having a pH of 7.0. The culture test tube was left under illumination for 12 hours a day and in the dark for 12 hours. As a result, the root tubers germinated and rooted while enlarging.

[1] = BA 0.05 mg/l (second 0.05 block, r16), sucrose 30 g/l, 60-th day
[2] = BA 0.05 mg/l (second 0.05 block, r16), sucrose 30 g/l, 97-th day
[3] = BA 0.05 mg/l (second 0.05 block, r16), sucrose 30 g/l, 127-th day
[4] = BA 0.05 mg/l (second 0.05 block, r17), sucrose 50 g/l, 60-th day
[5] = BA 0.05 mg/l (second 0.05 block, r17), sucrose 50 g/l, 97-th day
[6] = BA 0.05 mg/l (second 0.05 block, r17), sucrose 50 g/l, 127-th day
[7] = BA 0.05 mg/l (second 0.05 block, r18), sucrose 70 g/l, 60-th day
[8] = BA 0.05 mg/l (second 0.05 block, r18), sucrose 70 g/l, 97-th day
[9] = BA 0.05 mg/l (second 0.05 block, r18), sucrose 70 g/l, 127-th day
[10] = BA 0.05 mg/l (second 0.05 block, r19), sucrose 90 g/l, 60-th day
[11] = BA 0.05 mg/l (second 0.05 block, r19), sucrose 90 g/l, 97-th day
[12] = BA 0.05 mg/l (second 0.05 block, r19), sucrose 90 g/l, 127-th day
[13] = BA 0.05 mg/l, sucrose 30 g/l, 60-th day
[14] = BA 0.05 mg/l, sucrose 30 g/l, 97-th day
[15] = BA 0.05 mg/l, sucrose 30 g/l, 127-th day
[16] = BA 0.05 mg/l, sucrose 50 g/l, 60-th day
[17] = BA 0.05 mg/l, sucrose 50 g/l, 97-th day
[18] = BA 0.05 mg/l, sucrose 50 g/l, 127-th day
[19] = BA 0.05 mg/l, sucrose 70 g/l, 60-th day
[20] = BA 0.05 mg/l, sucrose 70 g/l, 97-th day
[21] = BA 0.05 mg/l, sucrose 70 g/l, 127-th day
[22] = BA 0.05 mg/l, sucrose 90 g/l, 60-th day
[23] = BA 0.05 mg/l, sucrose 90 g/l, 97-th day
[24] = BA 0.05 mg/l, sucrose 90 g/l, 127-th day
[25] = BA 0.1 mg/l, sucrose 30 g/l, 60-th day
[26] = BA 0.1 mg/l, sucrose 30 g/l, 97-th day
[27] = BA 0.1 mg/l, sucrose 30 g/l, 127-th day
[28] = BA 0.1 mg/l, sucrose 50 g/l, 60-th day
[29] = BA 0.1 mg/l, sucrose 50 g/l, 97-th day
[30] = BA 0.1 mg/l, sucrose 50 g/l, 127-th day
[31] = BA 0.1 mg/l, sucrose 70 g/l, 60-th day
[32] = BA 0.1 mg/l, sucrose 70 g/l, 97-th day
[33] = BA 0.1 mg/l, sucrose 70 g/l, 127-th day
[34] = BA 0.1 mg/l, sucrose 90 g/l, 60-th day
[35] = BA 0.1 mg/l, sucrose 90 g/l, 97-th day
[36] = BA 0.1 mg/l, sucrose 90 g/l, 127-th day
[37] = BA 1.0 mg/l, sucrose 30 g/l, 60-th day
[38] = BA 1.0 mg/l, sucrose 30 g/l, 97-th day
[39] = BA 1.0 mg/l, sucrose 30 g/l, 127-th day
[40] = BA 1.0 mg/l, sucrose 50 g/l, 60-th day
[41] = BA 1.0 mg/l, sucrose 50 g/l, 97-th day
[42] = BA 1.0 mg/l, sucrose 50 g/l, 127-th day
[43] = BA 1.0 mg/l, sucrose 70 g/l, 60-th day
[44] = BA 1.0 mg/l, sucrose 70 g/l, 97-th day
[45] = BA 1.0 mg/l, sucrose 70 g/l, 127-th day
[46] = BA 1.0 mg/l, sucrose 90 g/l, 60-th day
[47] = BA 1.0 mg/l, sucrose 90 g/l, 97-th day
[48] = BA 1.0 mg/l, sucrose 90 g/l, 127-th day

## c1ccc(CNc2ncnc3[nH]cnc23)cc1 [BA, benzylaminopurine]
[1]
  Enlarging ratio: 3.23
  Germination rate: 40
  Rooting rate: 20
[2]
  Enlarging ratio: 3.97
  Germination rate: 40
  Rooting rate: 40
[3]
  Enlarging ratio: 4.23
  Germination rate: 40
  Rooting rate: 40
[4]
  Enlarging ratio: 2.52
  Germination rate: 40
  Rooting rate: 0
[5]
  Enlarging ratio: 2.85
  Germination rate: 60
  Rooting rate: 0
[6]
  Enlarging ratio: 3.25
  Germination rate: 60
  Rooting rate: 20
[7]
  Germination rate: 20
  Rooting rate: 20
[8]
  Germination rate: 40
  Rooting rate: 20
[9]
  Germination rate: 40
  Rooting rate: 20
[10]
  Enlarging ratio: 2.67
  Germination rate: 0
  Rooting rate: 20
[11]
  Enlarging ratio: 4.98
  Germination rate: 60
  Rooting rate: 20
[12]
  Enlarging ratio: 5.78
  Germination rate: 60
  Rooting rate: 20
[13]
  Enlarging ratio: 2.17
  Germination rate: 20
  Rooting rate: 40
[14]
  Enlarging ratio: 2.41
  Germination rate: 80
  Rooting rate: 40
[15]
  Enlarging ratio: 2.47
  Germination rate: 80
  Rooting rate: 40
[16]
  Enlarging ratio: 2.83
  Germination rate: 20
  Rooting rate: 20
[17]
  Enlarging ratio: 3.43
  Germination rate: 60
  Rooting rate: 80
[18]
  Enlarging ratio: 4.23
  Germination rate: 60
  Rooting rate: 80
[19]
  Germination rate: 40
  Rooting rate: 0
[20]
  Germination rate: 40
  Rooting rate: 60
[21]
  Germination rate: 40
  Rooting rate: 60
[22]
  Enlarging ratio: 1.93
  Germination rate: 40
  Rooting rate: 20
[23]
  Enlarging ratio: 2.11
  Germination rate: 40
  Rooting rate: 60
[24]
  Enlarging ratio: 2.11
  Germination rate: 40
  Rooting rate: 60
[25]
  Enlarging ratio: 2.05
  Germination rate: 40
  Rooting rate: 40
[26]
  Enlarging ratio: 2.35
  Germination rate: 60
  Rooting rate: 80
[27]
  Enlarging ratio: 2.35
  Germination rate: 60
  Rooting rate: 80
[28]
  Enlarging ratio: 2.40
  Germination rate: 20
  Rooting rate: 40
[29]
  Enlarging ratio: 2.90
  Germination rate: 40
  Rooting rate: 40
[30]
  Enlarging ratio: 3.10
  Germination rate: 60
  Rooting rate: 60
[31]
  Enlarging ratio: 1.40
  Germination rate: 20
  Rooting rate: 0
[32]
  Enlarging ratio: 2.47
  Germination rate: 40
  Rooting rate: 0
[33]
  Enlarging ratio: 2.73
  Germination rate: 40
  Rooting rate: 20
[34]
  Enlarging ratio: 2.68
  Germination rate: 0
  Rooting rate: 40
[35]
  Enlarging ratio: 3.28
  Germination rate: 0
  Rooting rate: 40
[36]
  Enlarging ratio: 3.28
  Germination rate: 20
  Rooting rate: 40
[37]
  Enlarging ratio: 2.25
  Germination rate: 0
  Rooting rate: 0
[38]
  Enlarging ratio: 3.50
  Germination rate: 40
  Rooting rate: 0
[39]
  Enlarging ratio: 3.95
  Germination rate: 40
  Rooting rate: 0
[40]
  Enlarging ratio: 2.27
  Germination rate: 20
  Rooting rate: 0
[41]
  Enlarging ratio: 3.18
  Germination rate: 40
  Rooting rate: 20
[42]
  Enlarging ratio: 4.02
  Germination rate: 40
  Rooting rate: 20
[43]
  Enlarging ratio: 2.25
  Germination rate: 0
  Rooting rate: 20
[44]
  Enlarging ratio: 4.03
  Germination rate: 20
  Rooting rate: 40
[45]
  Enlarging ratio: 4.81
  Germination rate: 20
  Rooting rate: 60
[46]
  Enlarging ratio: 1.84
  Germination rate: 40
  Rooting rate: 20
[47]
  Enlarging ratio: 2.11
  Germination rate: 60
  Rooting rate: 40
[48]
  Enlarging ratio: 2.47
  Germination rate: 60
  Rooting rate: 40

Source: patent US20050229276A1, “Method of producing cyclamen root tuber and method of proliferating cyclamen using the same” (Tokyo University of Agricultural, priority 2002, published 2005)
